Source: ChEMBL document CHEMBL1649581, “Evaluation of target specificity of antibacterial agents using Staphylococcus aureus ddlA mutants and D-cycloserine in a silkworm infection model” (2009)
In brackets after ≈: the same amount, converted by molar mass.

Key:
Assay type in all cases: functional
[1] = test system: Staphylococcus aureus; experiment: Antibacterial activity against Staphylococcus aureus RN4220 after 20 hrs; conditions: RN4220, 20 h
[2] = test system: Staphylococcus aureus; experiment: Antibacterial activity against Staphylococcus aureus TS2921 harboring ddlA Asp102Asn mutation after 20 hrs; conditions: TS2921, 20 h
[3] = test system: Staphylococcus aureus; experiment: Antibacterial activity against Staphylococcus aureus TS5337 harboring ddlA Pro178Ser mutation after 20 hrs; conditions: TS5337, 20 h
[4] = test system: Staphylococcus aureus; experiment: Antibacterial activity against Staphylococcus aureus TS10007 harboring ddlA Asp39Asn mutation after 20 hrs; conditions: TS10007, 20 h
[5] = test system: Staphylococcus aureus; experiment: Antibacterial activity against Staphylococcus aureus TS2921 harboring ddlA Asp102Asn mutation and coexpressing pSddlA which complements temperature sensitivity after 20 hrs; conditions: TS2921, 20 h
[6] = test system: Staphylococcus aureus; experiment: Antibacterial activity against Staphylococcus aureus TS2921 harboring ddlA Asp102Asn mutation in presence of 100 mM D-Ala-D-Ala, which complements temperature sensitivity after 20 hrs; conditions: TS2921, 20 h
[7] = test system: Staphylococcus aureus; experiment: Antibacterial activity against Staphylococcus aureus RN4220 in fifth-instar silkworm larva infection model assessed as compound concentration per gram of larva […] after 48 hrs post dose at 27 degC
[8] = test system: Staphylococcus aureus; experiment: Antibacterial activity against Staphylococcus aureus TS2921 harboring ddlA Asp102Asn mutation in fifth-instar silkworm larva infection model assessed as compound concentration per gram of larva […] after 48 hrs post dose at 27 degC
[9] = test system: Staphylococcus aureus; experiment: Antibacterial activity against Staphylococcus aureus TS10007 harboring ddlA Asp39Asn mutation in fifth-instar silkworm larva infection model assessed as compound concentration per gram of larva […] after 48 hrs post dose at 27 degC
[10] = test system: Staphylococcus aureus; experiment: Antibacterial activity against Staphylococcus aureus TS5337 harboring ddlA Pro178Ser mutation in fifth-instar silkworm larva infection model assessed as compound concentration per gram of larva […] after 48 hrs post dose at 27 degC

| Compound | MIC [1] [mg/L] | MIC [2] [mg/L] | MIC [3] [mg/L] | MIC [4] [mg/L] | MIC [5] [mg/L] | MIC [6] [mg/L] | ED50 [7] [µg] | ED50 [8] [µg] | ED50 [9] [µg] | ED50 [10] [µg] |
| --- | --- | --- | --- | --- | --- | --- | --- | --- | --- | --- |
| CCn1cc(C(=O)O)c(=O)c2cc(F)c(N3CCNCC3)cc21 [NORFLOXACIN] | 0.63 (≈ 1.97 µM) | 0.63 (≈ 1.97 µM) | 0.63 (≈ 1.97 µM) | 0.63 (≈ 1.97 µM) | 0.63 (≈ 1.97 µM) | 0.63 |  |  |  |  |
| O=C(N[C@H](CO)[C@H](O)c1ccc([N+](=O)[O-])cc1)C(Cl)Cl [CHLORAMPHENICOL] | 6.3 (≈ 19.5 µM) | 3.1 (≈ 9.59 µM) | 3.1 (≈ 9.59 µM) | 3.1 (≈ 9.59 µM) |  | 3.1 | 4.9 | 5.3 |  |  |
| N[C@@H]1CONC1=O [CYCLOSERINE] | 100 (≈ 979 µM) | 12.5 (≈ 122 µM) | 25 (≈ 245 µM) | 50 (≈ 490 µM) | > 100 | 50 | 40 | <2.2 | <2.2 | 5.4 |
| CN(C)[C@@H]1C(O)=C(C(N)=O)C(=O)[C@@]2(O)C(O)=C3C(=O)c4c(O)cccc4[C@@](C)(O)[C@H]3C[C@@H]12 [TETRACYCLINE] | 0.063 (≈ 0.142 µM) | 0.063 (≈ 0.142 µM) | 0.063 (≈ 0.142 µM) | 0.063 (≈ 0.142 µM) | 0.063 (≈ 0.142 µM) | 0.031 | 0.68 | 0.7 | 0.35 | 0.75 |
| CN[C@H](CC(C)C)C(=O)N[C@H]1C(=O)N[C@@H](CC(N)=O)C(=O)N[C@H]2C(=O)N[C@H]3C(=O)N[C@H](C(=O)N[C@H](C(=O)O)c4cc(O)cc(O)c4-c4cc3ccc4O)[C@H](O)c3ccc(c(Cl)c3)Oc3cc2cc(c3O[C@@H]2O[C@H](CO)[C@@H](O)[C@H](O)[C@H]2O[C@H]2C[C@](C)(N)[C@H](O)[C@H](C)O2)Oc2ccc(cc2Cl)[C@H]1O [VANCOMYCIN] | 0.4 (≈ 0.276 µM) | 0.4 (≈ 0.276 µM) | 0.4 (≈ 0.276 µM) | 0.4 (≈ 0.276 µM) | 0.4 (≈ 0.276 µM) | 1.6 | 0.53 | 0.43 | 0.25 | 0.45 |
| CO[C@@]1(NC(=O)CSC(F)F)C(=O)N2C(C(=O)O)=C(CSc3nnnn3CCO)CO[C@@H]21 [FLOMOXEF] | 0.4 (≈ 0.806 µM) | 0.2 (≈ 0.403 µM) | 0.2 (≈ 0.403 µM) | 0.4 (≈ 0.806 µM) | 0.4 (≈ 0.806 µM) | 0.4 | 0.054 | 0.031 | 0.048 | 0.031 |
